From PubChem BioAssay AID179 (DTP/NCI, 2004)
Active and inactive are the calls of the source.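 How the source made its calls: active means compounds giving half or more protection of infected cells from virus-caused growth loss, again on retest; inactive means the rest.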 Where a SMILES comes first, the peptide text is derived from it. The star is where a group is joined. Cbz = O=C(OCc1ccccc1)*; NHNH2 = NN*

Tested on: CEM cells HIV-1 protection, formazan growth assay
Assay: NCI AIDS Antiviral Assay
Conditions: for IC50: measured here: growth of uninfected CEM cells
Summary of the method: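 Protection of CEM cells against HIV-1 measured as cell growth via soluble formazan read-out, with five concentrations tested on both infected and uninfected cells; failure to protect may reflect toxicity.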

SMILES	EC50 [µM]	IC50 [µM]	outcome
O=S(=O)(/N=C1/SC(=Nc2ccccc2)N(c2ccccc2)/C1=N/S(=O)(=O)c1ccccc1)c1ccccc1	> 200	2.82	
OCC1=CCC2c3[nH]c4ccccc4c3CCN2C1 (centres undefined)	> 372	> 372	
CCOC(=O)C(C)(c1c(C)n(C)c2ccccc12)c1c(C)n(C)c2ccccc12	> 200	> 100	
Clc1cc2nc(C3CCCCO3)[nH]c2cc1Cl (centres undefined)	> 200	10.2	
COC(=O)c1ccccc1CC1Cc2cc3c(cc2C1=O)CCC3 (centres undefined)	> 200	7.59	
O=c1[nH]c2nc3ccccc3c(=O)n2/c1=C/c1ccc(Cl)cc1	> 200	11.2	
CC1(C)CC(=O)c2c(N)n[nH]c2C1	11.2	> 200	
CCOC(=O)/C=C/[C@@H](CC)O[Si](C(C)C)(C(C)C)C(C)C	> 200	> 200	
O=C(N/N=C/c1ccc(Cl)cc1)c1ccccc1Nc1ccccc1C(=O)N/N=C/c1ccc(Cl)cc1	55	> 200	
O=C(CBr)OCCCS(=O)(=O)O	> 200	> 200	
O=C(Oc1ccccc1)N(CCO)C(c1ccccc1)C(O)c1ccccc1 (centres undefined)	> 200	5.25	
CCOC(=S)NP(=O)(NC(=S)OCC)NC(=S)OCC	> 200	> 200	
Cc1cc(=O)oc2c1ccc1occc(=O)c12	> 100	56.2	
CCCCCCCCCCCCCCCCCCNc1ccn(C2OC(CO)C(OP(=O)(O)OCC3CCC(n4ccc(N)nc4=O)O3)C2O)c(=O)n1 (centres undefined)	1.1	15.8	
O=C1/C(=C/c2cc3c(=O)c4ccccc4sc3s2)NC(=S)N1c1ccccc1	> 200	> 200	
NC(=O)c1ccccc1NC(=O)C(=O)C(c1cnc2ccc([N+](=O)[O-])cc2n1)[N+](=O)[O-] (centres undefined)	> 61.7	> 61.7	
Nc1ccc2n[se]nc2c1			inactive
C=C1OC2OC(C)C(NC(=O)OCC(Cl)(Cl)Cl)C(OC(C)=O)C2O1 (centres undefined)	> 234	> 234	
Cc1nc2c(-c3ccccc3)[nH]c(C)c2c(=O)o1	> 200	69.2	
Cc1ccc(NC(=S)Nc2c(C)n(C)n(-c3ccccc3)c2=O)cc1	> 200	> 200	
CCC1C(=O)OCc2c1cc1n(c2=O)C(CC)c2c-1nc1ccccc1c2Cl (centres undefined)	> 10	4.68	
CO[C@H]1Nc2c(ccc(C)c2O)C(=O)N2C=C(/C=C/C(N)=O)C[C@@H]12	> 759	0.427	

SMILES	EC50 [µM]	IC50 [µM]	outcome
OC1(c2cccnc2)c2ccccc2Oc2ccccc21	> 200	79.4	
CC(=O)N1CCOC12N=NC(C)(C)O2 (centres undefined)	> 200	> 200	
CC(C)n1c2c(c3ccccc3c1=O)C(=O)c1ccccc1-2	> 64.6	> 64.6	
O=C(N/N=C\c1cccnc1)c1ccncc1	> 200	> 200	
COc1ccc(/C(C)=N/NC(=O)CC(=O)N(C(=O)c2ccccc2)c2ccc(C)cc2)cc1	> 16.2	> 16.2	
O=S(=O)(O)c1ccc(O)c2ncc(Cl)cc12	> 200	> 200	
O=C(CCc1cc(O)cc(O)c1)NCCCNC(=O)CCc1cc(O)cc(O)c1	> 200	> 200	
NC1=NC(=O)C(CC(=O)Nc2ccc([N+](=O)[O-])cc2[N+](=O)[O-])S1 (centres undefined)	> 75.9	> 75.9	
CCOC(=O)c1c(NS(=O)(=O)c2ccc(C)cc2)sc2c1CCCC2	> 200	25.1	
OC1COC(n2c3ccc(Br)cc3c3ccc4c5ccccc5[nH]c4c32)C(O)C1O (centres undefined)	> 112		
O=C(OC1CCCCC1)c1cc(NC(=S)c2ccccc2F)ccc1Cl	0.0363	18.2	
Cc1nc2nnnn2c2c1C(=O)Nc1ccccc1N2	> 200	83.2	
CC(=O)[O-].CC(=O)[O-].O=C(N/N=C/c1cc(Cl)cc(Cl)c1[OH2+])c1ccncc1.[Co+2]			inactive
CCOC(=O)Cc1ccc2c(c1)sc1nc(-c3ccc(OC)cc3)cn12	> 200	60.3	
CN1C(CC(O)c2ccccc2)CCCC1CC(O)(c1ccccc1)c1ccccc1 (centres undefined)	> 107	22.9	
CCCCOC/N=C(/N)NC#N	> 525	> 525	
CCOC(=O)c1cc(-c2cc(OC)c(OC)c([N+](=O)[O-])c2)c([N+](=O)[O-])n1C	> 200	10.2	
Cc1oc2c(c1C)S(=O)(=O)C(C#N)=C(c1ccccc1)N2	> 200	> 200	
CC1=Nn2c(nnc2-c2ccc(Cl)cc2)NC(C)(C)C1	> 61.7	> 61.7	
COc1ccc(/C=C/c2cnc3ccccc3n2)cc1OC	> 200	155	
CC(=O)NC1C(OCc2ccccc2)OC(CO)C(O)C1OC(C)C(=O)NC(C)C(=O)N[C@H](CCC(=O)OCCNCCCNc1ccc([N+](=O)[O-])c2[nH]c3ccccc3c(=O)c12)C(N)=O (some centres undefined)	> 200	60.3	
O=C(CNc1nccs1)Nn1cnc2ccc(S(=O)(=O)Nc3nccs3)cc2c1=O	> 200	> 200	

SMILES	EC50 [µM]	IC50 [µM]	outcome
C[C@]12CC=CC(=O)[C@@]1(C)CCC(=O)C2			inactive
CC[N+]1(C)CCC(O)(c2ccc(OC)cc2)C(C(=O)c2ccc(OC)cc2)C1 (centres undefined)	> 200	10.2	
O=C(O)CNS(=O)(=O)c1ccc(NC(=O)c2ccccc2[N+](=O)[O-])cc1			inactive
COc1ccc(Cc2cc(Cc3ccc(OC)cc3)cc(Cc3ccc(OC)cc3)c2)cc1	> 100	> 100	
CC(C)C(NC(=O)C1CCCN1C(=O)OCc1ccccc1)C(=O)NN (stereo not drawn) (Cbz-Pro-Val-NHNH2; configuration not given here)	> 692	407	
CNc1ccc(Cl)cc1C(=O)N1CCC[C@H]1CO	> 200	> 200	
Cc1c(-c2ccccc2)[nH]n(C2=NCCN2)c1=O	> 200	120	
O=[N+]([O-])/C=C/COCc1cc2c(cc1Br)OCO2	> 200	9.33	
O=[N+]([O-])c1ccc(OP(=O)(O)OCC2OC(CP(=O)(O)O)C(O)C2O)cc1 (centres undefined)	> 200	> 200	
CCOP(=O)(OCC)C(C)(CC)NC (centres undefined)	> 200	> 200	
CN(C)c1nn2c(-c3ccccc3)nnc2o1	> 200	> 200	
CCN(CC)CCCCC1CCN(CC(=O)N2c3ccccc3NC(=O)c3ccccc32)CC1	> 282	158	
CN1C(=O)OC(c2ccc(Cl)cc2)C1=O (centres undefined)	> 200	> 200	
O=C([O-])c1ccc2c(c1)-c1nc-2nc2[n-]c(nc3nc(nc4[n-]c(n1)c1ccc(C(=O)[O-])cc41)-c1ccc(C(=O)[O-])cc1-3)c1ccc(C(=O)[O-])cc21.[Gd+3].[K+]	> 45.7	> 45.7	
CCCCCCNC(=S)N/N=C(\C)c1ccccn1	> 0.2	0.0324	
COc1cccc2c1OC(c1cccc3ccccc13)C([N+](=O)[O-])=C2 (centres undefined)	> 2	1.07	
CCCCCCCCCCC(C)CCCCCCC(=O)O (centres undefined)			inactive
O=C(N=C1SCCN1C(=O)C(C(F)(F)F)C(F)(F)F)C(C(F)(F)F)C(F)(F)F	> 200	> 200	
O=C1C[C@H]2CCCN2[C@@H](c2ccccc2)C1	> 603	> 603	
CC(=O)Nc1sc(Br)cc1S(=O)(=O)c1ccc(Cl)cc1	> 200	31.6	
COc1ccccc1/C=C1\C(=O)N(C(=O)c2ccc(NC(C)=O)cc2)N=C1C	> 19.1	> 19.1	
CCOC(=O)c1oc2c(OC)ccc3c2c1CCC3			inactive

SMILES	EC50 [µM]	IC50 [µM]	outcome
C[N+](C)(C)CCS(=O)(=O)[O-]	> 200	> 200	
O=C(CCCN1CCC2(CC1)C(=O)NCN2c1ccccc1)c1ccccc1	> 200	34.7	
O=C(CC1Sc2ccccc2NC1=O)Nc1ccc([N+](=O)[O-])cc1[N+](=O)[O-] (centres undefined)	> 67.6	> 67.6	
COc1ccc(C2(OC)Oc3cc(OC)ccc3C(=O)C2(O)O)cc1 (centres undefined)	> 200	10.7	
N#CCCN(CCCN(C(=O)Nc1ccccc1)c1ccccc1)C(=O)Nc1ccccc1	> 200	95.5	
CC1(C)OCC2OC3([C@H]4OC(C)(C)O[C@@H]4CO)OC(C)(C)OC3C2O1 (some centres undefined)	> 200	> 200	
C=CCC1(C(=O)OC(C)(C)C)C(OC)=C(C(=O)OC(C)(C)C)C2C1C(C(=O)OC(C)(C)C)=C(OC)C2(CC=C)C(=O)OC(C)(C)C (centres undefined)			inactive
N#CC(C(=O)/C(=N\NC(N)=O)C(C#N)c1ccc(Cl)cc1)c1ccc(Cl)cc1 (centres undefined)	> 603	398	
O=C(O)c1cc(Cc2cc(C(c3ccc(O)c(C(=O)O)c3)c3ccc(O)c(C(=O)O)c3)cc(C(=O)O)c2O)ccc1O	95.5	195	
Nc1cc(F)c2cccnc2c1O	> 200	11.7	
O=C1C2=C(c3ccccc31)C(c1cccc(Cl)c1)NC(=S)N2 (centres undefined)	> 57.5	35.5	
O=C1C[C@@H]2[C@@H](C=CC23CC3)N1O	> 1510	> 1510	
O=C1NC(O)n2c(=O)[nH]c(=O)n21 (centres undefined)			inactive
O=C1CC[C@H]2[C@@H]3N1c1ccccc1[C@@]31CCN3C/C(=C/CBr)[C@@H]2C[C@H]31	> 75.9	> 75.9	
CC1(C)OC2C3CCC(C)(C3)C2(c2ccccc2)O1 (centres undefined)	> 87.1	> 87.1	
CC1(C)CC2=C(SC3C=CC=CC3N2)C(=O)C1C(=O)C(N)=O (centres undefined)	> 58.9	> 58.9	
COc1cc(OC)cc(Oc2nc3cc(F)c(F)cc3nc2-c2ccccc2)c1	> 200	> 200	
CCOP(=O)(CC(=O)C1CC1)OCC			inactive
Cc1cn(C2CC3OP(=O)(OCc4ccccc4)OCC3O2)c(=O)[nH]c1=O (centres undefined)	> 3.63	> 3.63	
Cc1ccc(N=Nc2cc(C)c(N)c(N=Nc3ccc(N=Nc4cc(C(=O)O)c(O)c(S(=O)(=O)O)c4)c(C)c3)c2N)cc1	14.1	> 100	
O=C1CSC2=NC3=C(CSC/C3=C\c3ccccc3)C(c3ccccc3)N12 (centres undefined)	> 200	43.7	
